In the Deep4Chem optical property database:
Values belong to the compound of their own block, whether it stands above or below them.

Assay: solvent given as SMILES

Compound: CCCCCCCCCCCCn1cccc1/C=C/c1ccc(/C=C/c2cccn2CCCCCCCCCCCC)cc1
emission maximum (in Cc1ccccc1): 443 nm

Compound: CCCCn1c2ccc(C#Cc3cccs3)cc2c2c1c1c3ccc(C#Cc4cccs4)cc3n(CCCC)c1c1c3ccc(C#Cc4cccs4)cc3n(CCCC)c21
emission maximum (in C1CCOC1): 430 nm

Compound: CCN1c2ccc(/C=N/Nc3ccccn3)cc2Sc2cc(-c3cccc4ccccc34)ccc21
emission maximum (in C1CCOC1): 487 nm
emission maximum (in CS(C)=O): 498 nm
emission maximum (in Cc1ccccc1): 482 nm
emission maximum (in ClCCl): 491 nm

Compound: CCCCCCN1C(=O)C(c2ccc(-n3c4ccccc4c4ccccc43)cc2)=C(c2ccc(-n3c4ccccc4c4ccccc43)cc2)C1=O
emission maximum (in ClC(Cl)Cl): 626 nm
emission maximum (in c1ccc2c(c1)c1ccccc1n2-c1ccc(-c2ccc(-n3c4ccccc4c4ccccc43)cc2)cc1): 591 nm

Compound: CC1(C)Nc2ccccc2-c2[nH]c3ccccc3c(=O)c21
emission maximum (in C1CCOC1): 483 nm
emission maximum (in CC#N): 507 nm
emission maximum (in CCCCO): 521 nm
emission maximum (in CCCO): 522 nm
emission maximum (in CCO): 523 nm
emission maximum (in CCOC(C)=O): 491 nm
emission maximum (in CN(C)C=O): 506 nm
emission maximum (in CO): 531 nm
emission maximum (in CS(C)=O): 510 nm
emission maximum (in Cc1ccccc1): 471 nm
emission maximum (in ClC(Cl)(Cl)Cl): 460 nm
emission maximum (in ClCCl): 491 nm
emission maximum (in O): 552 nm
emission maximum (in c1ccccc1): 474 nm

Compound: CCCCCCOc1ccc(N(c2ccc(OCCCCCC)cc2)c2ccc(-c3sc(-c4ccc(N(c5ccc(OCCCCCC)cc5)c5ccc(OCCCCCC)cc5)cc4)c4nc(CC)c(CC)nc34)cc2)cc1
emission maximum (in ClCCl): 725 nm

Compound: CC1=CC(C)=[N+]2C1=C(C1=C(C)C3=C(C)c4c(C)cc(C)n4[B-](F)(F)[N+]3=C1C)c1c(C)cc(C)n1[B-]2(F)F
emission maximum (in ClC(Cl)Cl): 527 nm

Compound: O=S(=O)(c1ccccc1)c1ccc(-c2ccc3c4ccc(-c5ccc(S(=O)(=O)c6ccccc6)cc5)cc4n(-c4ccccc4)c3c2)cc1
emission maximum (in CCCCCC): 409 nm
emission maximum (in CN(C)C=O): 437 nm
emission maximum (in CO): 434 nm
emission maximum (in Cc1ccccc1): 413 nm
emission maximum (in ClCCl): 411 nm

Compound: CCCC1=Cc2nc1ccc1[nH]c(cc1CCOC)c1nc(ccc3[nH]c2cc3CCC)C(CCOC)=C1
emission maximum (in Cc1ccccc1): 642 nm

Compound: CCCCn1c(-c2ccc(-c3ccc(-c4ccc(-c5n(CCCC)c6ccccc6[n+]5CCCC)cc4)cc3)cc2)[n+](CCCC)c2ccccc21
emission maximum (in O): 397 nm

Compound: CCCCCCCCCCCCC(CCCCCCCCCC)Cn1c2cc(/C=C/C=C/c3nc4ccccc4s3)c3cccc4c5cccc6c(/C=C/C=C/c7nc8ccccc8s7)cc1c(c65)c2c34 (stereo not drawn)
emission maximum (in C1CCCCC1): 588 nm
emission maximum (in CC#N): 608 nm
emission maximum (in Cc1ccccc1): 604 nm
emission maximum (in ClCCl): 612 nm

Compound: O=CC1=C(c2ccc(-c3cccs3)s2)CC1
emission maximum (in C1CCOC1): 470 nm
emission maximum (in CC#N): 493 nm
emission maximum (in CCCCCC): 464 nm
emission maximum (in CCO): 516 nm
emission maximum (in OCCOCCO): 526 nm
emission maximum (in c1ccncc1): 495 nm

Compound: CC(C)[Si]1(C(C)C)c2cc(C#N)ccc2-c2ccc(N(c3ccccc3)c3ccccc3)cc21
emission maximum (in C1CCCCC1): 413 nm
emission maximum (in CC#N): 500 nm
emission maximum (in CCO): 482 nm
emission maximum (in CCOCC): 436 nm
emission maximum (in CS(C)=O): 500 nm
emission maximum (in ClCCl): 470 nm
emission maximum (in c1ccccc1): 432 nm

Compound: CCCCC1(CCCC)c2cc(C#Cc3ccc(C=C4c5ccccc5-c5ccccc54)cc3)ccc2-c2ccc(C#Cc3ccc(C=C4c5ccccc5-c5ccccc54)cc3)cc21
emission maximum (in C1CCOC1): 406 nm

Compound: CCCCn1c(-c2ccc(-c3ccc(-c4ccc(-c5n(CCCC)c6cc(C)ccc6[n+]5CCCC)cc4)cc3)cc2)[n+](CCCC)c2ccc(C)cc21
emission maximum (in O): 397 nm

Compound: CCCCOc1ccc(-c2cc(-c3ccc(OCCCC)cc3)c3ccc4c(-c5ccc(OCCCC)cc5)cc(-c5ccc(OCCCC)cc5)c5ccc2c3c54)cc1
emission maximum (in ClC(Cl)Cl): 433 nm

Compound: CCN(CC)c1ccc(-c2cc3c(s2)c(C(=O)OC)cc(=O)n3C)cc1
emission maximum (in C1CCOC1): 543 nm
emission maximum (in CC#N): 605 nm
emission maximum (in CCO): 516 nm
emission maximum (in CN(C)C=O): 604 nm
emission maximum (in CO): 503 nm
emission maximum (in CS(C)=O): 615 nm
emission maximum (in Cc1ccccc1): 504 nm
emission maximum (in ClC(Cl)Cl): 545 nm
emission maximum (in ClCCl): 562 nm

Compound: FC(F)(F)c1c(-n2c3ccccc3c3ccccc32)c(-n2c3ccccc3c3ccccc32)c(-n2c3ccccc3c3ccccc32)c(-n2c3ccccc3c3ccccc32)c1-n1c2ccccc2c2ccccc21
emission maximum (in ClCCl): 481 nm

Compound: O=C(c1ccc(N2c3ccccc3Oc3ccccc32)cc1)c1ccc(N2c3ccccc3Oc3ccccc32)cc1
emission maximum (in Cc1ccccc1): 509 nm
emission maximum (in c1cc(-n2c3ccccc3c3ccccc32)cc(-n2c3ccccc3c3ccccc32)c1): 538 nm

Compound: Cc1cc(=O)oc2cc3c4ccccc4c4ccccc4c3cc12
emission maximum (in C1CCOC1): 410 nm
emission maximum (in CC#N): 419 nm
emission maximum (in CO): 420 nm
emission maximum (in CS(C)=O): 418 nm
emission maximum (in Cc1ccccc1): 410 nm
emission maximum (in ClC(Cl)Cl): 415 nm

Compound: c1cc2ccc3ccc(OP4(Oc5ccc6ccc7cccc8ccc5c6c78)=NP(Oc5ccc6ccc7cccc8ccc5c6c78)(Oc5ccc6ccc7cccc8ccc5c6c78)=NP(Oc5ccc6ccc7cccc8ccc5c6c78)(Oc5ccc6ccc7cccc8ccc5c6c78)=N4)c4ccc(c1)c2c34
emission maximum (in ClCCl): 459 nm

Compound: CN(C)c1ccc(/C=C/C(=O)O)cc1
emission maximum (in C1CCCCC1): 399 nm
emission maximum (in C1CCOC1): 418 nm
emission maximum (in C1COCCO1): 414 nm
emission maximum (in CC#N): 445 nm
emission maximum (in CCCCO): 439 nm
emission maximum (in CCCO): 441 nm
emission maximum (in CCOC(C)=O): 421 nm
emission maximum (in CO): 453 nm
emission maximum (in Cc1ccccc1): 413 nm
emission maximum (in O): 453 nm
emission maximum (in c1ccccc1): 416 nm

Compound: CC(C)(C)c1ccc(C2=C(Br)C3=C(c4ccccc4)c4c(Br)c(-c5ccc(C(C)(C)C)cc5)c(-c5ccc(C(C)(C)C)cc5)n4[B-](F)(F)[N+]3=C2c2ccc(C(C)(C)C)cc2)cc1
emission maximum (in C1CCCCC1): 614 nm
emission maximum (in C1CCOC1): 617 nm
emission maximum (in CC#N): 613 nm
emission maximum (in Cc1ccccc1): 618 nm
emission maximum (in ClCCl): 619 nm

Next, values leading:

emission maximum (in C1CCCCC1): 327 nm
emission maximum (in CC#N): 340 nm
emission maximum (in CO): 344 nm
emission maximum (in O): 350 nm
Compound: CCOC(=O)COc1ccc(C(c2c(C)[nH]c3ccccc23)c2c(C)[nH]c3ccccc23)cc1

emission maximum (in CO): 663 nm
emission maximum (in ClC(Cl)Cl): 687 nm
Compound: CCN1C(=CC2=C([O-])C(=Cc3sc4ccccc4[n+]3CC)C2=O)Sc2ccccc21

emission maximum (in ClCCl): 506 nm
Compound: N#Cc1ccc(-c2cn3cc(-c4ccccc4)c[n+]3[n-]2)cc1

emission maximum (in CC#N): 453 nm
emission maximum (in CCO): 464 nm
emission maximum (in CCOC(C)=O): 435 nm
emission maximum (in CO): 469 nm
emission maximum (in ClC(Cl)Cl): 443 nm
emission maximum (in OCC(F)(F)F): 496 nm
Compound: COc1ccc2cc3c(C)cc(=O)oc3cc2c1

emission maximum (in ClCCl): 391 nm
Compound: Cc1cc2c3ccccc3n(C)c2c2c1c1ccccc1n2C

emission maximum (in CC#N): 644 nm
emission maximum (in CO): 640 nm
emission maximum (in ClCCl): 638 nm
emission maximum (in O): 641 nm
Compound: CN(C)c1ccc2c3c(c(=O)oc2c1)C=c1cc2c(cc1O3)=[N+](CCC(=O)O)CCC2

emission maximum (in CC#N): 516.76 nm
emission maximum (in CCCCCC): 464.17 nm
Compound: O=C1c2ccccc2-c2cnccc21

emission maximum (in CCO): 470 nm
emission maximum (in ClCCl): 460 nm
Compound: CCN(CC)c1ccc2cc(C#N)/c(=N\C(=O)c3ccco3)oc2c1

emission maximum (in O): 601 nm
Compound: CC[n+]1c(-c2ccccc2)c2cc(NC(N)=O)ccc2c2ccc(N)cc21

emission maximum (in ClC(Cl)Cl): 410 nm
Compound: CC(=O)OCCN1C(=O)c2cccc3c(Oc4ccc(C#N)cc4)ccc(c23)C1=O

emission maximum (in ClCCl): 426 nm
Compound: COc1cc2c3sc4ccccc4c3c3cncnc3c2c(OC)c1OC

emission maximum (in ClCCl): 434 nm
Compound: CCOC(=O)/N=c1/oc2cc(OC)ccc2cc1C#N

emission maximum (in ClC(Cl)Cl): 564 nm
Compound: Oc1ccc(C2=[N+]3C(=C(c4ccccc4)c4cccn4[B-]3(F)F)C=C2)cc1

emission maximum (in C1CCOC1): 621 nm
emission maximum (in CCCCCC): 520 nm
emission maximum (in ClCCl): 638 nm
emission maximum (in c1ccccc1): 580 nm
Compound: O=C1OC(=O)c2ccc(N(c3ccccc3)c3ccc4ccccc4c3)c3cccc1c23

emission maximum (in ClCCl): 400 nm
Compound: C1=C(c2ccccc2)[Si](c2ccccc2)(c2ccccc2)c2ccccc21

emission maximum (in CN(C)C=O): 429 nm
Compound: CCN(CC)c1ccc(-c2nc(Oc3ccc(-c4nc5cc([N+](=O)[O-])ccc5[nH]4)cc3)nc(Oc3ccc(-c4nc5cc([N+](=O)[O-])ccc5[nH]4)cc3)n2)cc1

emission maximum (in C1CCCCC1): 420 nm
Compound: Cc1cc(C)c(B2c3cc(C(C)(C)C)ccc3-c3cc4ccccc4c4cc(C(C)(C)C)cc2c34)c(C)c1

emission maximum (in C1CCOC1): 446 nm
Compound: O=c1oc2cccc3c4cccc5ccc6c7ccccc7c1c(c23)c6c54

emission maximum (in ClCCl): 712 nm
Compound: COc1c2ccccc2c(OC)c2c(C#C[Si](C(C)C)(C(C)C)C(C)C)c3cc4ccccc4cc3c(C#C[Si](C(C)C)(C(C)C)C(C)C)c12

emission maximum (in ClCCl): 413 nm
Compound: Oc1ccccc1-c1nc2c(c3c1-c1ccccc1CC3)-c1ccccc1CC2

emission maximum (in CN(C)C=O): 398 nm
Compound: Cc1nc2cccc(-c3nc4ccccc4o3)c2c(=O)[nH]1

emission maximum (in ClCCl): 857 nm
Compound: CCN(CC)c1ccc2c(-c3ccccc3C(=O)O)c3c([o+]c2c1)/C(=C/C=C/c1ccc(N(C)C)cc1)CCC3

emission maximum (in C1CCOC1): 396 nm
Compound: F[Si-](F)(c1c2ccccc2cc2ccccc12)(c1c2ccccc2cc2ccccc12)c1c2ccccc2cc2ccccc12

emission maximum (in C1COCCO1): 426 nm
Compound: c1ccc(-c2nc(-c3ccc(-c4ccc(-c5ccc(-c6nc(-c7ccccc7)c(-c7ccccc7)o6)cc5)cc4)cc3)oc2-c2ccccc2)cc1

emission maximum (in CC#N): 478 nm
emission maximum (in CO): 496 nm
emission maximum (in ClCCl): 471 nm
Compound: COc1cccc(-c2[nH]c(=O)n3c2-c2ccccc2C3=O)c1O

emission maximum (in CC#N): 480 nm
emission maximum (in O): 534 nm
Compound: Nc1cccc2ncccc12

emission maximum (in O): 400 nm
Compound: C[NH+](C)c1c2ccccc2cc2ccccc12

emission maximum (in C1CCOC1): 368 nm
emission maximum (in C1COCCO1): 369 nm
Compound: c1ccc(-c2ccc(-c3ccc(-c4ccccc4)cc3)cc2)cc1

emission maximum (in C1CCOC1): 384 nm
emission maximum (in ClCCl): 384 nm
Compound: Cc1ccc(-c2ccc3ccc4cc(C(C)(C)C)cc5ccc2c3c45)cc1

emission maximum (in CS(C)=O): 492 nm
Compound: C(/C=C/Nc1ccccc1)=[NH+]c1ccccc1
